Assay [1] relates to Staphylococcus aureus. The assay is described as follows: Antimicrobial activity against Staphylococcus aureus CIP 4.83 after 18 to 24 hrs by broth microdilution method. It is filed as functional. (Broth dilution looks for growth in wells or tubes with falling amounts of substance.)
A further assay has as its system Enterococcus hirae. The assay is described as follows: Antimicrobial activity against Enterococcus hirae CIP 5855 after 18 to 24 hrs by broth microdilution method. It is filed as functional.
For a further assay, the system named is Pseudomonas aeruginosa. The assay is described as follows: Antimicrobial activity against Pseudomonas aeruginosa CIP 82.118 after 18 to 24 hrs by broth microdilution method. It is filed as functional.
The next assay deals with Escherichia coli. The assay is described as follows: Antimicrobial activity against Escherichia coli CIP 53126 after 18 to 24 hrs by broth microdilution method. It is filed as functional.
Assay [2] relates to Staphylococcus aureus. The assay is described as follows: Antimicrobial activity against methicillin-resistant Staphylococcus aureus ATCC 33591 after 18 to 24 hrs by broth microdilution method. It is filed as functional.
The test system of assay [3] is Staphylococcus aureus. The assay is described as follows: Antimicrobial activity against methicillin-resistant Staphylococcus aureus ATCC 33592 after 18 to 24 hrs by broth microdilution method. It is filed as functional.
The test system of assay [4] is Staphylococcus aureus. The assay is described as follows: Antimicrobial activity against multidrug-resistant Staphylococcus aureus isolate 1 after 18 to 24 hrs by broth microdilution method. It is filed as functional.
The subject of assay [5] is Staphylococcus aureus. The assay is described as follows: Antimicrobial activity against multidrug-resistant Staphylococcus aureus isolate 2 after 18 to 24 hrs by broth microdilution method. It is filed as functional.
The test system of assay [6] is Mycobacterium tuberculosis. The assay is described as follows: Antimycobacterial activity against Mycobacterium tuberculosis H37Rv assessed as growth inhibition at 0.1 uM after 6 days by MTT colorimetric microassay. It is filed as functional, organism-based.

We go through 8 compounds from ChEMBL document CHEMBL1914411, “Synthesis of lipophilic dimeric C-7/C-7-linked ciprofloxacin and C-6/C-6-linked levofloxacin derivatives. Versatile in vitro biological evaluations of monomeric and dimeric fluoroquinolone derivatives as potential antitumor, antibacterial or antimycobacterial agents” (Eur J Med Chem, 2011).

Converted amounts (≈) assume the structure as drawn. The source made the active and inactive calls.

The MBC is the smallest concentration meeting the test's criterion for killing. A high value points to less potent killing. In general, MIC refers to the lowest concentration that inhibits growth of the organism. Turning to `O=C(CCCCCCCCCCCCCCC(=O)OCN1CCN(c2cc3c(cc2F)c(=O)c(C(=O)O)cn3C2CC2)CC1)OCN1CCN(c2cc3c(cc2F)c(=O)c(C(=O)O)cn3C2CC2)CC1`, the minimal bactericidal concentration (MBC) was at most 0.97 µM with Staphylococcus aureus [1]; 62.5 µM (≈ 60.8 µg/mL) with Enterococcus hirae; 250 µM (≈ 243 µg/mL) with Pseudomonas aeruginosa; 15.6 µM (≈ 15.2 µg/mL) in the assay with Escherichia coli; 15.6 µM (≈ 15.2 µg/mL) in the assay on Staphylococcus aureus [2]; 1.9 µM (≈ 1.85 µg/mL) against Staphylococcus aureus [3]. The MBC in the assay on Staphylococcus aureus [4] and with Staphylococcus aureus [5] was 500 µM (≈ 487 µg/mL) each time. The minimum inhibitory concentration (MIC) was at most 0.97 µM in the assay on Staphylococcus aureus [1]; 31.2 µM (≈ 30.4 µg/mL) in the assay with Enterococcus hirae; 62.5 µM (≈ 60.8 µg/mL) against Pseudomonas aeruginosa; 7.8 µM (≈ 7.59 µg/mL) in the assay with Escherichia coli; 7.8 µM (≈ 7.59 µg/mL) against Staphylococcus aureus [2]; 0.97 µM (≈ 0.944 µg/mL) in the assay on Staphylococcus aureus [3]. Besides, the MIC in the assay on Staphylococcus aureus [4] and in the assay with Staphylococcus aureus [5] was 125 µM (≈ 122 µg/mL) throughout. Moreover, in assay [6], the “growth inhibition (GI)” value was “inactive”.

As for `O=C(O)c1cn(C2CC2)c2cc(N3CCN(C(=O)CCl)CC3)c(F)cc2c1=O`, the MBC with Staphylococcus aureus [1] is at most 0.97 µM; with Enterococcus hirae, 3.9 µM (≈ 1.59 µg/mL); in the assay on Pseudomonas aeruginosa, 250 µM (≈ 102 µg/mL); with Escherichia coli, at most 0.97 µM. For the same compound, the minimum inhibitory concentration (MIC) in the assay on Staphylococcus aureus [1] is at most 0.97 µM; in the assay with Enterococcus hirae, 3.9 µM (≈ 1.59 µg/mL); with Pseudomonas aeruginosa, 31.2 µM (≈ 12.7 µg/mL); with Escherichia coli, at most 0.97 µM. For the same compound, the “growth inhibition (GI)” value in assay [6] is “inactive”.

Regarding `CCCCCCCCCCCCCC(=O)N1CCN(c2cc3c(cc2F)c(=O)c(C(=O)O)cn3C2CC2)CC1`, the minimal bactericidal concentration (MBC) in the assay with Staphylococcus aureus [1] was 125 µM (≈ 67.7 µg/mL); with Enterococcus hirae, 250 µM (≈ 135 µg/mL); in the assay on Pseudomonas aeruginosa, 250 µM (≈ 135 µg/mL); in the assay with Escherichia coli, 500 µM (≈ 271 µg/mL). Also, the minimal inhibitory concentration (MIC) was found to be 125 µM (≈ 67.7 µg/mL) against Staphylococcus aureus [1], 62.5 µM (≈ 33.9 µg/mL) against Enterococcus hirae, 125 µM (≈ 67.7 µg/mL) in the assay with Pseudomonas aeruginosa and 125 µM (≈ 67.7 µg/mL) against Escherichia coli. Also, in [6], the “growth inhibition (GI)” value was “inactive”.

As for `O=C(O)c1cn(C2CC2)c2cc(N3CCN(C(=O)CCCCCCCCCCCCCCC(=O)N4CCN(c5cc6c(cc5F)c(=O)c(C(=O)O)cn6C5CC5)CC4)CC3)c(F)cc2c1=O`, the minimum bactericidal concentration (MBC) against Staphylococcus aureus [1] is 15.6 µM (≈ 14.2 µg/mL); in the assay with Enterococcus hirae, 500 µM (≈ 457 µg/mL); in the assay on Pseudomonas aeruginosa, 250 µM (≈ 228 µg/mL); against Escherichia coli, 500 µM (≈ 457 µg/mL). Besides, the MIC worked out at 1.9 µM (≈ 1.73 µg/mL) against Staphylococcus aureus [1], 62.5 µM (≈ 57.1 µg/mL) in the assay on Enterococcus hirae, 62.5 µM (≈ 57.1 µg/mL) in the assay on Pseudomonas aeruginosa and 62.5 µM (≈ 57.1 µg/mL) in the assay on Escherichia coli. Further, the “growth inhibition (GI)” value in assay [6] was “inactive”.

As to `CCCCNC(=O)c1cn2c3c(c(N4CCN(C)CC4)c(F)cc3c1=O)OC[C@@H]2C`, the MBC against Staphylococcus aureus [1] was 125 µM (≈ 52.1 µg/mL); in the assay with Enterococcus hirae it was 250 µM (≈ 104 µg/mL); in the assay with Pseudomonas aeruginosa, 250 µM (≈ 104 µg/mL); in the assay with Escherichia coli it was 62.5 µM (≈ 26 µg/mL). The minimum inhibitory concentration (MIC) is 125 µM (≈ 52.1 µg/mL) against Staphylococcus aureus [1], 125 µM (≈ 52.1 µg/mL) in the assay with Enterococcus hirae, 62.5 µM (≈ 26 µg/mL) in the assay on Pseudomonas aeruginosa and 62.5 µM (≈ 26 µg/mL) against Escherichia coli. The “growth inhibition (GI)” value in [6] is “inactive”.

For `CCCCCCCCCCCCOC(=O)N1CCN(c2cc3c(cc2F)c(=O)c(C(=O)O)cn3C2CC2)CC1`, the minimal bactericidal concentration (MBC) is 125 µM (≈ 68 µg/mL) against Staphylococcus aureus [1], 500 µM (≈ 272 µg/mL) against Enterococcus hirae, 125 µM (≈ 68 µg/mL) against Pseudomonas aeruginosa and 250 µM (≈ 136 µg/mL) against Escherichia coli. Besides, the minimum inhibitory concentration (MIC) came out at 125 µM (≈ 68 µg/mL) against Staphylococcus aureus [1], 62.5 µM (≈ 34 µg/mL) with Enterococcus hirae, 125 µM (≈ 68 µg/mL) with Pseudomonas aeruginosa and 125 µM (≈ 68 µg/mL) against Escherichia coli. Further, in assay [6], the “growth inhibition (GI)” value was “inactive”.

As to `CCCCCCNC(=O)c1cn2c3c(c(N4CCN(C)CC4)c(F)cc3c1=O)OC[C@@H]2C`, the MBC in the assay on Staphylococcus aureus [1] worked out at 250 µM (≈ 111 µg/mL); against Enterococcus hirae, 250 µM (≈ 111 µg/mL); against Pseudomonas aeruginosa it was 250 µM (≈ 111 µg/mL); with Escherichia coli it was 500 µM (≈ 222 µg/mL). Besides, the MIC in the assay on Staphylococcus aureus [1] was found to be 250 µM (≈ 111 µg/mL); with Enterococcus hirae, 125 µM (≈ 55.6 µg/mL); in the assay on Pseudomonas aeruginosa, 62.5 µM (≈ 27.8 µg/mL); in the assay with Escherichia coli, 125 µM (≈ 55.6 µg/mL). The “growth inhibition (GI)” value in [6] was “inactive”.

Take `CCCCCCCCCCOC(=O)N1CCN(c2cc3c(cc2F)c(=O)c(C(=O)O)cn3C2CC2)CC1`: the minimal bactericidal concentration (MBC) in the assay with Staphylococcus aureus [1] was found to be 62.5 µM (≈ 32.2 µg/mL); against Enterococcus hirae it was 500 µM (≈ 258 µg/mL); with Pseudomonas aeruginosa it was 250 µM (≈ 129 µg/mL); in the assay on Escherichia coli it was 500 µM (≈ 258 µg/mL). Also, the MIC was found to be 62.5 µM (≈ 32.2 µg/mL) against Staphylococcus aureus [1], 62.5 µM (≈ 32.2 µg/mL) in the assay with Enterococcus hirae, 125 µM (≈ 64.5 µg/mL) with Pseudomonas aeruginosa and 125 µM (≈ 64.5 µg/mL) in the assay with Escherichia coli. The “growth inhibition (GI)” value in assay [6] was “inactive”.
